“Also recorded” adds a separate entry of the source.
Tests used:
yeast α-glucosidase = experiment: α-glucosidase inhibitory assay by the chromogenic method; type: biochemical; conditions: for IC50: yeast α-glucosidase [Sigma], substrate p-nitrophenyl-α-D-glucopyranoside, pH 7.00, absorbance at 405 nm; for α-glucosidase inhibitory potency compared with the standard drug 1-deoxy nojirimycin: comparison in words
Procedure: The α-glucosidase inhibitory assay was done by the chromogenic method. In brief 10 μl of test compounds dissolved in DMSO (5 mg/ml and subsequent dilutions) were incubated for 5 min. with 50 μl of yeast α-glucosidase [Sigma] enzyme prepared in 100 mM phosphate buffer (pH 7.00). After 5 minutes of incubation, 50 μl of 5 mM substrate (p-nitrophenyl-α-D-glucopyranoside [Sigma] prepared in the same buffer) was added. The pre-substrate and 5-min post-substrate addition absorbances were recorded at 405 nm spectrophotometrically. The increase in absorbance from pre-substrates addition to post substrates reaction were obtained.

| SMILES | melting point [°C] | IC50 (yeast α-glucosidase) [µM] | other results |
| --- | --- | --- | --- |
| Oc1ccc(C2Oc3c(ccc(O)c3O)CC2O)cc1O (single isomer, unassigned; (-)) [Compound 1, (−)-mesquitol] | 252 | 82.3 | α-glucosidase inhibitory activity, in words (yeast α-glucosidase): potent α-glucosidase inhibitory activity |
| O=C(OC1Cc2ccc(O)c(O)c2OC1c1ccc(O)c(O)c1)c1ccccc1Cl (single isomer, unassigned; (-)) [Compound 4I, (−)-3-O-(o-chlorobenzoyl) mesquitol] | 252 | 43.3 |  |
| CC(=O)OC1Cc2ccc(O)c(O)c2OC1c1ccc(O)c(O)c1 (single isomer, unassigned; (-)) [Compound 4a, (−)-3-O-acetyl mesquitol] | 78 | 46.3 |  |
| CCCC(=O)OC1Cc2ccc(O)c(O)c2OC1c1ccc(O)c(O)c1 (single isomer, unassigned; (-)) [Compound 4b, (−)-3-O-butyryl mesquitol] | 80 | 46.2 |  |
| CCCCCC(=O)OC1Cc2ccc(O)c(O)c2OC1c1ccc(O)c(O)c1 (single isomer, unassigned; (-)) [Compound 4c, (−)-3-O-hexanoyl mesquitol] | 81 | 49.3 |  |
| CCCCCCCCCCCCCC(=O)OC1Cc2ccc(O)c(O)c2OC1c1ccc(O)c(O)c1 (single isomer, unassigned; (-)) [Compound 4e, (−)-3-O-myristoyl mesquitol] | 83 | 12.6 | α-glucosidase inhibitory potency compared with the standard drug 1-deoxy nojirimycin (yeast α-glucosidase; listed as myristoyl ester of (−) mesquitol): more potent α-glucosidase inhibitors than the standard drug 1-deoxy nojirimycin; also recorded: more potent than the standard α-glucosidase inhibitor 1-deoxy nojirimycin |
| CCCCCCCCCCCCCCCC(=O)OC1Cc2ccc(O)c(O)c2OC1c1ccc(O)c(O)c1 (single isomer, unassigned; (-)) [Compound 4f, (−)-3-O-Palmitoyl mesquitol] | 87 | 9.56 | α-glucosidase inhibitory potency compared with the standard drug 1-deoxy nojirimycin (yeast α-glucosidase; listed as palmitoyl ester of (−) mesquitol): more potent α-glucosidase inhibitors than the standard drug 1-deoxy nojirimycin; also recorded: more potent than the standard α-glucosidase inhibitor 1-deoxy nojirimycin |
| CCCCCCCCCC(=O)O[C@H]1Cc2ccc(O)c(O)c2O[C@@H]1c1ccc(O)c(O)c1 [Compound 4d, (−)-3-O-Decanoyl mesquitol] |  | 13.5 | α-glucosidase inhibitory potency compared with the standard drug 1-deoxy nojirimycin (yeast α-glucosidase; listed as decanoyl ester of (−) mesquitol): more potent α-glucosidase inhibitors than the standard drug 1-deoxy nojirimycin; also recorded: more potent than the standard α-glucosidase inhibitor 1-deoxy nojirimycin |

Further lines, with some results ahead:

| melting point [°C] | IC50 (yeast α-glucosidase) [µM] | SMILES | other results |
| --- | --- | --- | --- |
| 90 | 54.5 | CCCCCCCCCCCCCCCCCC(=O)OC1Cc2ccc(O)c(O)c2OC1c1ccc(O)c(O)c1 (single isomer, unassigned; (-)) [Compound 4g, (−)-3-O-Steroyl mesquitol] |  |
| 248 | 77.8 | O=C(OC1Cc2ccc(O)c(O)c2OC1c1ccc(O)c(O)c1)c1ccccc1 (single isomer, unassigned; (-)) [Compound 4h, (−)-3-O-benzoyl mesquitol] | α-glucosidase inhibitory potency compared with the standard drug 1-deoxy nojirimycin (yeast α-glucosidase; listed as benzoyl ester of (−) mesquitol): more potent α-glucosidase inhibitor than the standard drug 1-deoxy nojirimycin |
| 254 | 67.3 | COc1ccc(C(=O)OC2Cc3ccc(O)c(O)c3OC2c2ccc(O)c(O)c2)cc1 (single isomer, unassigned; (-)) [Compound 4j, (−)-3-O-(p-methoxybenzoyl) mesquitol] |  |
|  | 32.8 | O=C(O[C@H]1Cc2ccc(O)c(O)c2O[C@@H]1c1ccc(O)c(O)c1)c1ccc(F)cc1 [Compound 4k, (−)-3-O-(p-flourobenzoyl) mesquitol] | α-glucosidase inhibitory potency compared with the standard drug 1-deoxy nojirimycin (yeast α-glucosidase; listed as p-flourobenzyl ester of (−) mesquitol): more potent α-glucosidase inhibitor than the standard drug 1-deoxy nojirimycin |

Source: patent US7071341B2, “α-Glucosidase inhibitors and their synthesis from a natural source” (Council of Scientific and Industrial Research, priority 2003, dated 2006)
